According to US10111935B2, “Agent for capturing tumor cells and methods of use thereof” (priority 2014, dated 2018):
Like-named read-outs stand apart in the source and are kept apart here.

Test system: SKOV3 cells
Experiment: IC50 concentration of standard ovarian cancer chemotherapy
Format: cell-based

Work on N.N.O=C([O-])C1(C(=O)[O-])CCC1.[Pt+2] [Carboplatin] yielded an IC50 (Carboplatin individually, read-out: IC50) of 10 µM and an IC50 (Carboplatin part of the combination, read-out: IC50 in combination Paclitaxel+Carboplatin) of 1 µM.
